# What was measured:
# [1] = target: T1, eqBuChE (Equus caballus, UniProt P81908); assay: biochemical; set-up: species or system equine
# T1 construct: eqBuChE, from equine serum; purchased Sigma Aldrich; host or cells: equine serum (natural source)
# Description: (§1) The inhibitory activities of the synthesised compounds against eeAChE (from electric eel) and eqBuChE (from equine serum) were tested by the modified Ellman’s method[26]^,[27]. […] The determination of AChE and BuChE inhibitory potency of the synthesised compounds were evaluated by Ellman assay, the detailed procedure referred to our previous work[26]^,[27].
# [2] = tested on: BV-2 cells; assay: Cytotoxicity on BV-2 cells (CCK8 assay); type: cell-based; details: compounds at 2 µM
# Description: (§2) Firstly, the cytotoxicity of compounds 3a, 3c, 3e, 3f, 3k, 3m and 3n were tested using CCK8 assay.
# BV-2 cells were cultured in DMEM containing 10% foetal bovine serum, 100 U/mL penicillin, 100 U/mL streptomycin, and 1% nonessential amino acid at 37 °C with 5% CO2.
# BV-2 cells in logarithmic growth stage were digested and centrifuged, and then resuspended in DMEM medium containing 1% penicillin-streptomycin and 10% foetal bovine serum. The cells was adjusted to 1.2 × 10^4 cells/well, and then seeded evenly in 96-well cell culture plates. The cells were incubated for 36 h at 37 °C with 5% CO2. After incubation, the cells were added to different concentrations (10 and 2 µM) of tested compounds, and incubated for 24 h at 37 °C with 5% CO2. Then, 10 µL CCK-8 solution was added to each well, and incubated for another 1 h at 37 °C with 5% CO2. The OD values were tested at […]. The cell viability (%) = {(ODdrug−ODblank)}/{(ODcontrol−ODblank)} × 100%.
# [3] = tested on: IL-6; assay: IL-6 production in LPS-stimulated BV-2 cells (ELISA); type: cell-based; details: 1 µM and 2 µM; 1 µg/mL LPS 24 h
# Description: as §2
# (§3) BV-2 cells (2 × 10^5 cells/well) were seeded in a 24-well cell culture plates. The cells were divided into blank control group, model group (1 µg/mL LPS), LPS + 2 µM compound group, LPS + 1 µM compound group. Each drug group was pre-treated with corresponding concentration of drug solution for 8 h. After 8 h, the culture medium was aspirated out. Except for the blank control group, which was added with DMEM medium, the other groups were stimulated with 1 µg/mL LPS for 24 h. Then cell supernatant was aspirated and centrifuged at 3000 rpm for 3 min. The content of NO in cell culture supernatant was determined by Griess method, and the levels of cytokines IL-6 and IL-1β in cell culture supernatant were determined by IL-6 ELISA kit and IL-1β ELISA kit, respectively.
# [4] = tested on: Aβ25-35-induced PC12 cells injury; assay: Neuroprotective effect on Aβ25-35-induced PC12 cells injury (CCK-8); type: cell-based; details: 25 µM Aβ25-35; model cell viability 57.3%
# Description: (§4) The neuroprotective effect of compounds 3a, 3c, 3e, 3f, 3k, 3m, and 3n on Aβ25–35-induced PC12 cells injury were evaluated using CCK-8 assay. […] Furthermore, as shown in Figure 12(B), when PC12 cells were exposed to 25 µM Aβ25-35, the cell viability sharply declined to 57.3% (p < 0.01) compared with untreated group.
# • Preparation of Aβ25-35 aggregation. Aβ25-35 was purchased from sigma. 1 mg Aβ25-35 was dissolved in 943 µL of sterilised deionised water to obtain 1 mM stock solution, aliquoted, –20 °C preservation. Removing the appropriate volume in a 48-well plate and incubated in a 37 °C incubator for two days to allow its ageing to accumulate and produce neurotoxicity. After aggregation was completed, the solution was diluted with PBS to get 25 µM solution of Aβ25-35 aggregation. • Neuroprotective effects of compounds on Aβ25-35-induced PC12 cells injury
# (§5) The PC12 cells during the logarithmic growth phase were digested and centrifuged with pancreatic enzyme solution, the cells were resuspended by adding the prepared media solution, and piped evenly with a pipette to seed in a 96-well cell culture plate (cell concentration adjusted to 2.0 × 10^4 cell·mL^−1). Each well was added 100 µL complete medium was added to each well and incubated at 37 °C and 5% CO2 for 24 h.
# After incubation for 24 h, PC12 cells were divided into blank group, control group, Aβ25-35 model group and tested compounds group (5, 10, 20 µM). Then the original medium was discarded, and 100 µL new complete medium were added to PC12 cells, and the tested compounds group was added to 100 µL complete medium containing different concentrations (5, 10, and 20 µM) of tested compounds, incubated for 2 h at 37 °C, 5% CO2 conditions. After incubation for 2 h, 10 µL Aβ25-35 solution was added to the tested compounds groups and model group (the final concentration of Aβ25-35 was 25 µM), and incubated for 24 h at 37 °C, 5% CO2 conditions, 10 µL CCK-8 was added to each well and further incubated for 1 h at 37 °C and 5% CO2. Finally, the OD value was measured at 450 nm using a microplate reader, and each concentration set three wells. The cell survival rate (%) was determined according to the following formula: cell viability (%) = {(ODdrug−ODblank)}/{(ODcontrol−ODblank)}.
# [5] = target: T2, eeAChE (Electrophorus electricus, UniProt O42275); assay: biochemical; set-up: species or system electric eel
# T2 construct: eeAChE, from the electric eel; purchased Sigma Aldrich; host or cells: electric eel (natural source)
# T2 sequence (O42275 24-633): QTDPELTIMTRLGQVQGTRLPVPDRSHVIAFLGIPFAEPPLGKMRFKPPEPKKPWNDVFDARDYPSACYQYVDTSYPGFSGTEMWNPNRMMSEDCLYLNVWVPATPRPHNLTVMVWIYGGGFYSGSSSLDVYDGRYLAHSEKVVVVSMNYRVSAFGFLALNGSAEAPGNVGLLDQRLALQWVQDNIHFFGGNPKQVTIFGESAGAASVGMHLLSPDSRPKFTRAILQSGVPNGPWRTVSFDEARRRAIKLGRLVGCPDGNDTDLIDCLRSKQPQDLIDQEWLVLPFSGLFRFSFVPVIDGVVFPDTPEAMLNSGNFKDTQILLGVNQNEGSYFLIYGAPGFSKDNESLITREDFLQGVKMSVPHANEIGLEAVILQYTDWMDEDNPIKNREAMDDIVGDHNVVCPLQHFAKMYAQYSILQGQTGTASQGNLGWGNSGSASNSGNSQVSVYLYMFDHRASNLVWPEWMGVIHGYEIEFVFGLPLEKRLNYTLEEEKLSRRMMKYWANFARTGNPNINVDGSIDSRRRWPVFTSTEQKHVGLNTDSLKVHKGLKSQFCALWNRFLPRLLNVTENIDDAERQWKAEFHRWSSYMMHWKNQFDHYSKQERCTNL
# Description: as §1
# [6] = target: T3, hBuChE (Homo sapiens, UniProt P06276); assay: biochemical
# T3 construct: hBuChE, human serum BuChE; purchased Sigma Aldrich; host or cells: human serum (natural source)
# T3 sequence (P06276 29-602): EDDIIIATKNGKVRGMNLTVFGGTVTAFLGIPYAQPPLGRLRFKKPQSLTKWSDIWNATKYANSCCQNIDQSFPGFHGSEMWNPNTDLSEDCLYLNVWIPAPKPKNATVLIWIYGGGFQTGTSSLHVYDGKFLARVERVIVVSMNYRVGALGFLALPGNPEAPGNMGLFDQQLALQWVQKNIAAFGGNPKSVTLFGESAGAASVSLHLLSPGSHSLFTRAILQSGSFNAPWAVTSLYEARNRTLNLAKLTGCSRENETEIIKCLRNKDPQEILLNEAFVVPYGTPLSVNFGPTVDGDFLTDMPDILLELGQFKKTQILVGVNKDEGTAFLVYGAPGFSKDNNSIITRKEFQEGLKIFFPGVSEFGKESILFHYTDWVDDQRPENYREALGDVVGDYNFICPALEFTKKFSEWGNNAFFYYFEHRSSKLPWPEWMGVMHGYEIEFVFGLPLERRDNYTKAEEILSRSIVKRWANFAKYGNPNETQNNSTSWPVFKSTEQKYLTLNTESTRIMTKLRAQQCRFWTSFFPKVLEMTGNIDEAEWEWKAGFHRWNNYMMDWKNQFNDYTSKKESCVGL
# Description: (§6) Acetylcholinesterase (eeAChE, from the electric eel; hAChE, from human erythrocytes AChE), butyrylcholinesterase (eqBuChE, from equine serum; hBuChE, human serum BuChE), 5,5′-dithiobis-2-nitrobenzoic acid (Ellman’s reagent, DTNB), acetylthiocholine chloride (ATC), and butyrylthiocholine chloride (BTC) were purchased form Sigma Aldrich. The determination of AChE and BuChE inhibitory potency of the synthesised compounds were evaluated by Ellman assay, the detailed procedure referred to our previous work[26]^,[27].
# [7] = target: T4, hAChE (Homo sapiens, UniProt P22303); assay: biochemical
# T4 construct: hAChE, from human erythrocytes AChE; purchased Sigma Aldrich; host or cells: human erythrocytes (natural source)
# T4 sequence (P22303 32-617 isoform P22303-2 limits assumed): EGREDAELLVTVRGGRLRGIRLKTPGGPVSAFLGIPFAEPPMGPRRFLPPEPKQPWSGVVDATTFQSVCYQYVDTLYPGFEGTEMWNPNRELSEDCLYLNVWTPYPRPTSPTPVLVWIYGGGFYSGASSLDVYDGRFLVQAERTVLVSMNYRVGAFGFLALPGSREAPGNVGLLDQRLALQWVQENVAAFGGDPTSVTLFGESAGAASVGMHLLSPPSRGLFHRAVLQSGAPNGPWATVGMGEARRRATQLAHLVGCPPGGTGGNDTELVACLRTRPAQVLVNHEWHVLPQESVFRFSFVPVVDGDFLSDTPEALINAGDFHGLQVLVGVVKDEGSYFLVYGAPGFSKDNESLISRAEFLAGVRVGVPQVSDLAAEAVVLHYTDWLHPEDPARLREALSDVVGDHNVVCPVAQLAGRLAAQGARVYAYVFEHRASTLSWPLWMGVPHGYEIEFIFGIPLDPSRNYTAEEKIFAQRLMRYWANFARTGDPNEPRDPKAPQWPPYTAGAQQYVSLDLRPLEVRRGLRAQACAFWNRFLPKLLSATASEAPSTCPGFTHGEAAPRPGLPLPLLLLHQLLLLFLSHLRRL
# Description: as §6
# [8] = tested on: PC12 cells; assay: Cytotoxicity on PC12 cells; type: cell-based; details: at concentration below 40 µM
# Description: as §4, §5
# [9] = tested on: IL-1β; assay: IL-1β production in LPS-stimulated BV-2 cells (ELISA); type: cell-based; details: 1 µg/mL LPS 24 h
# Description: as §2, §3
# [10] = tested on: NO; assay: NO release in LPS-stimulated BV-2 cells (Griess method); type: cell-based; details: 1 µg/mL LPS 24 h
# Description: as §2, §3
# T1 sequence (P81908 whole entry): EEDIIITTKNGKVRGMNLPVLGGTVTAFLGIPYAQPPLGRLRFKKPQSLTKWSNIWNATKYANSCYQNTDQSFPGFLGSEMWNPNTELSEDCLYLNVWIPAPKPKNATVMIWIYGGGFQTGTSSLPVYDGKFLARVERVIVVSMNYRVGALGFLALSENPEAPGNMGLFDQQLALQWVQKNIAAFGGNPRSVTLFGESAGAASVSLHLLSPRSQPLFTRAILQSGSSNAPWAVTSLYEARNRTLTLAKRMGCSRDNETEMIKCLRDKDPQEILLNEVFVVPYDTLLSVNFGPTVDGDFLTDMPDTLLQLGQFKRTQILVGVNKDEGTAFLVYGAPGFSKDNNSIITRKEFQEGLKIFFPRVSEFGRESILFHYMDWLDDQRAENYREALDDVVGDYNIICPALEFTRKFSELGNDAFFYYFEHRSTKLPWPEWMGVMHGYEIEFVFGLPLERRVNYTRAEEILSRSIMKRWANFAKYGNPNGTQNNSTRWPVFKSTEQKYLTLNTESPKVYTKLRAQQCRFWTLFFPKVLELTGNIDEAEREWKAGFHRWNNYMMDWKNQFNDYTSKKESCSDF
smiles,measurement,setting,value
"CN(C)C(=O)Oc1cccc2ncccc12 [Compound 3e, Quinolin-5-yl dimethylcarbamate]",IC50,"[1]; IC50 ± SD eqBuChE, BuChE from equine serum",0.94 ± 0.07 µM
same,SI = IC50 (AChE)/IC50 (BuChE),[1]; eeAChE/eqBuChE,4.8
same,cell viability of BV-2 cells,[2],did not show obvious change
same,levels of IL-6 compared with model group,[3],significantly decreased
same,neuroprotective effect on Aβ25-35-induced PC12 cells injury,[4],remarkable neuroprotective effects at 5 and 10 µM
same,IC50,[5],4.5 ± 0.04 µM
same,IC50,"[6]; IC50 ± SD hBuChE, from human serum",3.7 ± 0.05 µM
same,SI = IC50 (AChE)/IC50 (BuChE),[6]; hAChE/hBuChE,2.8
same,IC50,[7],10.4 ± 0.21 µM
same,cytotoxicity on PC12 cells,[8],did not show any cytotoxicity
same,levels of IL-1β compared with model group,[9],significantly decreased
same,release volume of NO,[10],significantly decreased
